Data as given in US5075322A, “Selenophen derivatives, a preparation process of the same and therapeutical compositions containing them” (Societe de Conseils de Recherches et d'Applications …, priority 1989, dated 1991).

Legend:
[1] = tested on: ovalbumine-induced bronchospasm; assay: ovalbumine-induced bronchoconstriction in passively sensitized rats; format: in vivo; details: for Percentage of bronchoconstriction / Percentage of effect: Table IV
Excerpt: (§1) The different symbols NS, *, ** and *** which may be found in the different tables, mean that the result is respectively not significative, significative, very significative and highly significative.

[2] = tested on: B.S.A.-induced immune lethality in mice; assay: B.S.A.-induced immune lethality (anaphylactic shock) in actively sensitized mice; format: in vivo
Excerpt: as §1
At the same dose, ketotifen has no effect.

rat washed platelets = assay: PAF-induced aggregation of rat washed platelets in vitro; format: cell-based; details: Platelet, PAF 5.10^-10 M
Excerpt: In vitro: effects on aggregation (IC50) induced by PAF (5·10^-10 M), rat washed platelets are as follow: IC50 Compound XI 2.10^-6 M. IC50 Ketotifen 10^-5 M.

[3] = tested on: histamine induced bronchospasm; assay: histamine-induced bronchospasm in artificially ventilated anaesthetized guinea pigs; format: in vivo; details: for % of bronchoconstriction / % of effect: Table V, 0.1 mg/kg PO
Method: as §1
The kinetic results of the administration of compound XI and ketotifen by oral route at 0.1 mg/kg (P.O.), 1 to 27 h histamine injection (15 mg IV), are reported in table 5.

[4] = tested on: histamine induced bronchospasm; assay: as above; format: in vivo; details: Cavia porcellus, po; administered 1 hour before histamine (15 mg IV), P.O.; read-out: ED 50 (P.O.)
PAF induced bronchospasm = assay: PAF-induced bronchospasm in artificially-ventilated anaesthetized guinea pigs; format: in vivo; details: for Percentage of bronchoconstriction / Percentage of effect: Table VII, PAF 60 mg/kg IV
Excerpt: as §1

[5] = tested on: ovalbumine-induced bronchospasm; assay: ovalbumine-induced bronchospasm in actively sensitized guinea pigs; format: in vivo; details: Table III, 0.1 mg/kg PO
Excerpt: as §1

[6] = tested on: ovalbumine-induced bronchospasm; assay: ovalbumine-induced bronchospasm in anaesthetized passively sensitized guinea-pigs; format: in vivo
Method: In the ovalbumine-induced bronchospasm in anaesthetized passively sensitized guinea-pigs, compound XI and ketotifen, administered 1 hour before the injection of ovalbumine, inhibit the bronchoconstriction (>90%) in a dose-dependant-manner respectively with following ED50 (P.O.)
For both products, the activity disappears at 24 hours.
The kinetic results, after administration by oral route of the said compounds at 0.1 mg/kg and 0.05 mg/kg (P.O.), for 1 to several hours before ovalbumine injection (1 mg/kg), are reported respectively in tables 1 and 2.
as §1

[7] = Table I, 0.1 mg/kg PO, pretreatment 1 h
[8] = Table I, 0.1 mg/kg PO, pretreatment 3 h
[9] = Table I, 0.1 mg/kg PO, pretreatment 6 h
[10] = Table I, 0.1 mg/kg PO, pretreatment 9 h
[11] = Table I, 0.1 mg/kg PO, pretreatment 15 h
[12] = Table I, 0.1 mg/kg PO, pretreatment 18 h
[13] = Table I, 0.1 mg/kg PO, pretreatment 21 h
[14] = Table I, 0.1 mg/kg PO, pretreatment 24 h
[15] = Table II, 0.05 mg/kg PO, pretreatment 1 h
[16] = Table II, 0.05 mg/kg PO, pretreatment 3 h
[17] = Table II, 0.05 mg/kg PO, pretreatment 6 h
[18] = Table II, 0.05 mg/kg PO, pretreatment 9 h
[19] = Table II, 0.05 mg/kg PO, pretreatment 15 h
[20] = Table II, 0.05 mg/kg PO, pretreatment 18 h
[21] = Table II, 0.05 mg/kg PO, pretreatment 21 h

## COc1ccc(CCN2CCC(Nc3nc4ccccc4n3Cc3ccc(F)cc3)CC2)cc1 [Astemizole]
[1]; 5 mg/kg PO
  Percentage of bronchoconstriction: 8.6 ± 2.5%
  Percentage of effect: -76.0%

## c1ccc2c(c1)Sc1ccccc1N2CC1CN2CCC1CC2 (stereo not drawn) [Mequitazine]
[2]; 2.5 mg/kg PO
  Mortality at 24 hours, % of mortality: 30%
  Mortality at 24 hours, % of variation: -51.2%
  Mortality at 24 hours, number of killed: 3/10
[2]; 10 mg/kg PO
  Mortality at 24 hours, % of mortality: 30%
  Mortality at 24 hours, % of variation: -51.2%
  Mortality at 24 hours, number of killed: 3/10

## CN1CCC(=C2c3ccccc3CC(=O)c3sccc32)CC1 [ketotifen]
[2]; 0.250 mg/kg PO
  Mortality at 24 hours, % of mortality: 50%
  Mortality at 24 hours, % of variation: -18.7%
  Mortality at 24 hours, number of killed: 5/10
[2]; 0.275 mg/kg P.O.
  protective effect (in words): has no effect
[2]; 0.500 mg/kg PO
  Mortality at 24 hours, % of mortality: 40%
  Mortality at 24 hours, % of variation: -35%
  Mortality at 24 hours, number of killed: 4/10
Rat washed platelets
  IC50: 10 µM
[3]; 1 h
  % of bronchoconstriction: 2.1 ± 0.8%
  % of effect: -97.4 ± 1.0%
[3]; 3 h
  % of bronchoconstriction: 0%
  % of effect: -100 ± 0%
[3]; 6 h
  % of bronchoconstriction: 18.2 ± 13.3%
  % of effect: -77.8 ± 16.2%
[3]; 9 h
  % of bronchoconstriction: 22.1 ± 14.1%
  % of effect: -71.5 ± 14.1%
[3]; 15 h
  % of bronchoconstriction: 51.4 ± 16.7%
  % of effect: -26.9 ± 16.7%
[3]; 18 h
  % of bronchoconstriction: 54.6 ± 13.3%
  % of effect: -39.8 ± 14.8%
[3]; 21 h
  % of bronchoconstriction: 46.6 ± 14.9%
  % of effect: -44.9 ± 17.6%
[3]; 24 h
  % of bronchoconstriction: 63.7 ± 15.1%
  % of effect: -3.0 ± 23.1%
[3]; 27 h
  % of bronchoconstriction: 83.4 ± 5.9%
[3]; administered 1 hour before histamine (15 mg IV)
  inhibition of bronchoconstriction (in words): inhibit significantly the bronchoconstriction in a dose-dependant-manner
[3]; during only the first hours, 0.1 mg/kg P.O.
  duration of maximum effect: 3 h
[4]
  ED50: 0.0635 µmol/kg
[1]; 0.1 mg/kg PO
  Percentage of bronchoconstriction: 24.7 ± 5.1%
  Percentage of effect: -31.0%
[1]; 1 mg/kg PO
  Percentage of bronchoconstriction: 46.3 ± 11.0%
  Percentage of effect: +29.3%
[1]; passively sensitized rats
  inhibition of bronchoconstriction (in words): has no effect
PAF induced bronchospasm; 1 hour before PAF, 0.1 mg/kg
  inhibition of PAF induced bronchospasm (in words): less active
PAF induced bronchospasm; 0.1 mg/kg PO
  Percentage of bronchoconstriction: 63.5 ± 9.6%
  Percentage of effect: -18.9%
PAF induced bronchospasm; 1 mg/kg PO
  Percentage of bronchoconstriction: 26.2 ± 14.8%
  Percentage of effect: -66.5%
[5]; pretreatment 1 h
  % of bronchoconstriction: 3.6 ± 1.2%
  % of effect: -95.8 ± 1.4%
[5]; pretreatment 3 h
  % of bronchoconstriction: 3.3 ± 0.5%
  % of effect: -95.6 ± 0.7%
[5]; pretreatment 6 h
  % of bronchoconstriction: 42.1 ± 19.3%
  % of effect: -43.9 ± 25.8%
[5]; pretreatment 9 h
  % of bronchoconstriction: 83.2 ± 16.1%
  % of effect: -8.8 ± 17.6%
[5]; pretreatment 15 h
  % of bronchoconstriction: 77.5 ± 14.8%
  % of effect: -9.0 ± 17.4%
[5]; pretreatment 18 h
  % of bronchoconstriction: 64.5 ± 19.5%
  % of effect: +17.9 ± 35.7%
[5]; pretreatment 21 h
  % of bronchoconstriction: 73.6 ± 15.5%
  % of effect: +34.4 ± 28.5%
[6]; 0.1 mg/kg and 0.05 mg/kg P.O.
  time at which the activity disappears: 24 h
[6]; Cavia porcellus, po, administered 1 hour before ovalbumine, P.O., passively sensitized guinea-pigs, read-out: ED50 (P.O.)
  ED50: 0.0941 µmol/kg
[6]; [7]
  % of bronchoconstriction: 8.3 ± 3.2%
  % of effect: -90.2 ± 3.8%
[6]; [8]
  % of bronchoconstriction: 7.3 ± 3.0%
  % of effect: -88.3 ± 4.8%
[6]; [9]
  % of bronchoconstriction: 31.9 ± 17.9%
  % of effect: -48.8 ± 28.8%
[6]; [10]
  % of bronchoconstriction: 66.9 ± 19.7%
  % of effect: -25.1 ± 22.0%
[6]; [11]
  % of bronchoconstriction: 77.5 ± 10.6%
  % of effect: -5.9 ± 13.3%
[6]; [12]
  % of bronchoconstriction: 54.0 ± 18.6%
  % of effect: -44.3 ± 19.2%
[6]; [13]
  % of bronchoconstriction: 88.3 ± 7.6%
  % of effect: -8.8 ± 7.9%
[6]; [14]
  % of bronchoconstriction: 67.3 ± 15.0%
  % of effect: +8.3 ± 24.0%
[6]; [15]
  % of bronchoconstriction: 44.9 ± 15.9%
  % of effect: -49.2%
[6]; [16]
  % of bronchoconstriction: 5.7 ± 1.7%
  % of effect: -93.6%
[6]; [17]
  % of bronchoconstriction: 82.9 ± 14.0%
  % of effect: -14.3%
[6]; [18]
  % of bronchoconstriction: 80.3 ± 19.7%
  % of effect: -17.1%
[6]; [19]
  % of bronchoconstriction: 64.3 ± 18.3%
  % of effect: -2.4%
[6]; [20]
  % of bronchoconstriction: 100 ± 0%
  % of effect: +2.0%
[6]; [21]
  % of bronchoconstriction: 94.4 ± 3.2%
  % of effect: -3.2%
[6]; administered 1 hour before ovalbumine, P.O., dose-dependent
  inhibition of bronchoconstriction: > 90%
